Source: patent publication US20110152093A1, “Herbicidal compositions comprising flufenacet” (Bayer CropScience AG, priority 2009, published 2011)

How the values were obtained:
Type in all cases: in vivo
[1] = tested on: AVEFA (Avena fatua); experiment: PE action at different soil pH values, test method 10; details: PE application; soil pH 8.4; g of AS/ha: (A) 90, (B) 1200, (C) 140, (A)+(B)+(C) 90 + 1200 + 140
Method: (§1) In the standard design of the test, seeds of various broad-leaved weed and weed grass biotypes (origins) were sown in a 8-13 cm diameter pot filled with natural soil of a standard field soil (loamy silt; non-sterile) and covered with a covering soil layer of about 1 cm. The pots were then cultivated in a greenhouse (12-16 h of light, temperature day 20-22° C., night 15-18° C.) until the time of application. The pots were treated on a laboratory track sprayer with spray liquors comprising the compositions according to the invention, mixtures of the prior art or components used individually. Application of the active compounds or active compound combinations formulated as WG, WP, EC or otherwise was carried out at the appropriate growth stages of the plants. The application rate for the spray application was 100-600 l of water/ha. After the treatment, the plants were returned to the greenhouses.
(§2) About 3 weeks after the application, the soil action or/and foliar action was assessed visually according to a scale of 0-100% in comparison to an untreated comparative group: 0%=no noticeable effect compared to the untreated comparative group; 100%=full effect compared to the untreated comparative group.

[2] = tested on: HORVS (Hordeum vulgare, summer barley); experiment: Action under various soil conditions (soil types), test method 7, crop compatibility; details: g of AS/ha: (A) 90, (B) 1200, (C) 140, (A)+(B)+(C) 90 + 1200 + 140
Method: as §1, §2
(§3) (notes: the term “seeds” also includes vegetative propagation forms such as, for example, rhizome pieces; abbreviations used: h light=hours of illumination, g of AS/ha=gram of active substance per hectare, l/ha=liter per hectare, S=sensitive, R=resistant) • 1. Pre-emergence action against weeds: seeds of various broad-leaved weed and weed grass biotypes (origins) were sown in a 8-13 cm diameter pot filled with natural soil of a standard field soil (loamy silt; non-sterile) and covered with a covering soil layer of about 1 cm. The pots were then cultivated in a greenhouse (12-16 h of light, temperature day 20-22° C., night 15-18° C.) until the time of application. The pots were treated at the BBCH stage 00-10 of the seeds/plants on a laboratory track sprayer with spray liquors comprising the compositions according to the invention, mixtures or components used individually, as WG, WP, EC or other formulations. The application rate for the spray application was 100-600 l of water/ha. After the treatment, the plants were returned to the greenhouses and, when required, treated with fertilizer and watered. • 2. Post-emergence action against weeds: seeds of various broad-leaved weed and weed grass biotypes (origins) were sown in a 8-13 cm diameter pot filled with natural soil of a standard field soil (loamy silt; non-sterile) and covered with a covering soil layer of about 1 cm. The pots were then cultivated in a greenhouse (12-16 h of light, temperature day 20-22° C., night 15-18° C.) until the time of application. The pots were treated at various BBCH stages between 11-25 of the seeds/plants, i.e. generally between two to three weeks after the start of the cultivation, on a laboratory track sprayer with spray liquors comprising the compositions according to the invention, mixtures or components used individually, as WG, WP, EC or other formulations. The application rate for the spray application was 100-600 l of water/ha. After the treatment, the plants were returned to the greenhouses and, when required, treated with fertilizer and watered. • 3. […]

[3] = tested on: MATCH (Matricaria chamomilla); experiment: PE action at different sowing depths, test method 9; details: PE application, g of AS/ha: (A) 90, (B) 1200, (C) 140, (A)+(B)+(C) 90 + 1200 + 140
Method: as §1
as §2, with “group. […]” for “group.”

[4] = tested on: MATCH (Matricaria chamomilla); experiment: Action under various soil conditions (soil types), test method 7; details: g of AS/ha: (A) 90, (B) 1200, (C) 140, (A)+(B)+(C) 90 + 1200 + 140
Method: as §1, §2
(§4) (notes: the term “seeds” also includes vegetative propagation forms such as, for example, rhizome pieces; abbreviations used: h light=hours of illumination, g of AS/ha=gram of active substance per hectare, l/ha=liter per hectare, S=sensitive, R=resistant) • 1. Pre-emergence action against weeds: seeds of various broad-leaved weed and weed grass biotypes (origins) were sown in a 8-13 cm diameter pot filled with natural soil of a standard field soil (loamy silt; non-sterile) and covered with a covering soil layer of about 1 cm. The pots were then cultivated in a greenhouse (12-16 h of light, temperature day 20-22° C., night 15-18° C.) until the time of application. The pots were treated at the BBCH stage 00-10 of the seeds/plants on a laboratory track sprayer with spray liquors comprising the compositions according to the invention, mixtures or components used individually, as WG, WP, EC or other formulations. The application rate for the spray application was 100-600 l of water/ha. After the treatment, the plants were returned to the greenhouses and, when required, treated with fertilizer and watered. • 2. Post-emergence action against weeds: seeds of various broad-leaved weed and weed grass biotypes (origins) were sown in a 8-13 cm diameter pot filled with natural soil of a standard field soil (loamy silt; non-sterile) and covered with a covering soil layer of about 1 cm. The pots were then cultivated in a greenhouse (12-16 h of light, temperature day 20-22° C., night 15-18° C.) until the time of application. The pots were treated at various BBCH stages between 11-25 of the seeds/plants, i.e. generally between two to three weeks after the start of the cultivation, on a laboratory track sprayer with spray liquors comprising the compositions according to the invention, mixtures or components used individually, as WG, WP, EC or other formulations. The application rate for the spray application was 100-600 l of water/ha. After the treatment, the plants were returned to the greenhouses and, when required, treated with fertilizer and watered. • 3. Selective pre-emergence action: seeds of various crop species (origins) were sown in a 8-13 cm diameter pot filled with natural soil of a standard field soil (loamy silt; non-sterile) and covered with a covering soil layer of about 1 cm. The pots were then cultivated in a greenhouse (12-16 h of light, temperature day 20-22° C., night 15-18° C.) until the time of application. The pots were treated at the BBCH stage 00-10 of the seeds/plants on a laboratory track sprayer with spray liquors comprising the compositions according to the invention, mixtures or components used individually, as WG, WP, EC or other formulations. The application rate for the spray application was 100-600 l of water/ha. […]

[5] = tested on: STEME (Stellaria media); experiment: as above; details: g of AS/ha: (A) 90, (B) 1200, (C) 140, (A)+(B)+(C) 90 + 1200 + 140
Method: as §1, §2, §4

[6] = tested on: AVEFA (Avena fatua); experiment: Pre-emergence (PE) action against weeds, greenhouse trial, test method 1; details: PE application; g of AS/ha: (A) 90, (B) 1200, (C) 140, (A)+(B)+(C) 90 + 1200 + 140
Method: as §1
as §2, with “group. […]” for “group.”

[7] = tested on: MATCH (Matricaria chamomilla); experiment: as above; details: PE application; g of AS/ha: (A) 90, (B) 1200, (C) 140, (A)+(B)+(C) 90 + 1200 + 140
Method: as §1
as §2, with “group. […]” for “group.”

[8] = tested on: HORVS (Hordeum vulgare, summer barley); experiment: PE crop selectivity at different sowing depths, test method 9; details: PE application, g of AS/ha: (A) 90, (B) 1200, (C) 140, (A)+(B)+(C) 90 + 1200 + 140
Method: as §1
as §2, with “group. […]” for “group.”

[9] = tested on: POAAN (Poa annua); experiment: Post-emergence (PO) action against weeds, greenhouse trial, test method 2; details: PO application; g of AS/ha: (A) 240, (B) 1200, (C) 140, (A)+(B)+(C) 240 + 1200 + 140
Method: as §1, §2, §3

[10] = tested on: VIOAR (Viola arvensis); experiment: as above; details: PO application; g of AS/ha: (A) 240, (B) 1200, (C) 140, (A)+(B)+(C) 240 + 1200 + 140
Method: as §1, §2, §3

[11] = tested on: HORVS (Hordeum vulgare, summer barley); experiment: Pre-sowing application (7 days prior to sowing), crop compatibility; details: g of AS/ha: (A) 90, (B) 1200, (C) 140, (A)+(B)+(C) 90 + 1200 + 140
Method: as §1
as §2, with “group. […]” for “group.”

CCC(CC)Nc1c([N+](=O)[O-])cc(C)c(C)c1[N+](=O)[O-] [(B) pendimethalin, N-(1-ethylpropyl)-3,4-dimethyl-2,6-dinitrobenzenamine]
activity AVEFA pH 8.4 [1]: 30% | activity HORVS IU soil (crop plant) ([2]; IU soil): 0% | activity HORVS IU/EC73 soil (crop plant) ([2]; IU/EC73 soil): 0% | activity MATCH 5 mm ([3]; sowing depth 5 mm): 0% | activity MATCH 20 mm ([3]; sowing depth 20 mm): 30% | activity MATCH IU soil ([4]; IU soil): 10% | activity MATCH IU/EC73 soil ([4]; IU/EC73 soil): 0% | activity STEME IU soil ([5]; IU soil): 85% | activity STEME IU/EC73 soil ([5]; IU/EC73 soil): 55% | activity AVEFA [6]: 40% | activity MATCH [7]: 18% | activity HORVS 5 mm (crop plant) ([8]; sowing depth 5 mm): 30% | activity HORVS 20 mm (crop plant) ([8]; sowing depth 20 mm): 20% | activity POAAN (visual, scale 0-100%) [9]: 0% | activity VIOAR (visual, scale 0-100%) [10]: 30% | activity HORVS (crop plant) [11]: 30%
